# Measured values as given in patent US8163728B2, “Pyrazoles” (Hoffmann-La Roche Inc., priority 2009, dated 2012).
# Biological target: T1, GABA A α5 (Homo sapiens, UniProt P18507+P31644)
# T1 construct: expressed in transfected cells; host or cells: HEK293 cells, transiently transfected; membranes prepared from cell pellets
# Test: [3H]flumazenil competition binding, human GABA A α5β3γ2 receptors in HEK293 cell membranes
# Details: human receptor α5β3γ2 transiently transfected in HEK293; 0.5 nM [3H]flumazenil; 1 hour at 4° C.; means of two determinations; read-out: hKi GABA A α5
# Procedure, shortened: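 Competition with [3H]flumazenil for binding to membranes of HEK293 cells transiently expressing human α5β3γ2, in Krebs-tris buffer pH 7.5. Incubated to equilibrium 1 h at 4 °C, filtered and scintillation-counted; Ki values are means of two determinations.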
row,SMILES,Ki
1,"Cc1onc(-c2ccc(F)cc2)c1CNc1cc(C(=O)NC2CCOCC2)[nH]n1 [Example 156, 5-{[3-(4-Fluoro-phenyl)-5-methyl-isoxazol-4-ylmethyl]-amino}-2H-pyrazole-3-carboxylic acid (tetrahydro-pyran-4-yl)-amide]",3.9 nM
2,"Cc1onc(-c2ccc(F)cc2)c1CNc1cc(C(=O)NC(C)CO)[nH]n1 (stereo not shown) [Example 157, 5-{[3-(4-Fluoro-phenyl)-5-methyl-isoxazol-4-ylmethyl]-amino}-2H-pyrazole-3-carboxylic acid (2-hydroxy-1-methyl-ethyl)-amide]",51 nM
3,"Cc1onc(-c2ccc(F)cc2)c1CNc1cc(C(=O)N2CC3(COC3)C2)[nH]n1 [Example 158, (5-{[3-(4-Fluoro-phenyl)-5-methyl-isoxazol-4-ylmethyl]-amino}-2H-pyrazol-3-yl)-(2-oxa-6-aza-spiro[3.3]hept-6-yl)-methanone]",22 nM
4,"Cc1onc(-c2ccccn2)c1CNc1cc(C(=O)NC(C)C)n(C)n1 [Example 159, N-isopropyl-1-methyl-3-((5-methyl-3-(pyridin-2-yl)isoxazol-4-yl)methylamino)-1H-pyrazole-5-carboxamide]",39.9 nM
5,"Cc1onc(-c2ccccn2)c1CNc1cc(C(=O)NC2CCOCC2)n(C)n1 [Example 160, 2-Methyl-5-[(5-methyl-3-pyridin-2-yl-isoxazol-4-ylmethyl)-amino]-2H-pyrazole-3-carboxylic acid (tetrahydro-pyran-4-yl)-amide]",25.4 nM
6,"Cc1onc(-c2ccccn2)c1CNc1cc(C(=O)NN2CCOCC2)n(C)n1 [Example 161, 1-Methyl-3-((5-methyl-3-(pyridin-2-yl)isoxazol-4-yl)methylamino)-N-morpholino-1H-pyrazole-5-carboxamide]",19.4 nM
7,"Cc1onc(-c2ccccn2)c1CNc1cc(C(=O)NC2(C)COC2)n(C)n1 [Example 162, 1-Methyl-3-((5-methyl-3-(pyridin-2-yl)isoxazol-4-yl)methylamino)-N-(3-methyloxetan-3-yl)-1H-pyrazole-5-carboxamide]",30.3 nM
8,"Cc1onc(-c2ccc(F)cn2)c1CNc1cc(C(=O)NC(C)C)n(C)n1 [Example 163, 3-((3-(5-Fluoropyridin-2-yl)-5-methylisoxazol-4-yl)methylamino)-N-isopropyl-1-methyl-1H-pyrazole-5-carboxamide]",99.5 nM
9,"Cc1onc(-c2ccc(F)cn2)c1CNc1cc(C(=O)NC2CCOCC2)n(C)n1 [Example 164, 3-((3-(5-Fluoropyridin-2-yl)-5-methylisoxazol-4-yl)methylamino)-1-methyl-N-(tetrahydro-2H-pyran-4-yl)-1H-pyrazole-5-carboxamide]",11.9 nM
10,"Cc1onc(-c2ccc(F)cn2)c1CNc1cc(C(=O)NC2CC2)n(C)n1 [Example 165, N-Cyclopropyl-3-((3-(5-fluoropyridin-2-yl)-5-methylisoxazol-4-yl)methylamino)-1-methyl-1H-pyrazole-5-carboxamide]",41.1 nM
11,"Cc1onc(-c2ccc(F)cn2)c1CNc1cc(C(=O)NCC2CC2)n(C)n1 [Example 166, N-(Cyclopropylmethyl)-3-((3-(5-fluoropyridin-2-yl)-5-methylisoxazol-4-yl)methylamino)-1-methyl-1H-pyrazole-5-carboxamide]",55.6 nM
12,"Cc1onc(-c2ccc(F)cn2)c1CNc1cc(C(=O)NC2(C)COC2)n(C)n1 [Example 167, 3-((3-(5-Fluoropyridin-2-yl)-5-methylisoxazol-4-yl)methylamino)-1-methyl-N-(3-methyloxetan-3-yl)-1H-pyrazole-5-carboxamide]",16.2 nM
13,"Cc1onc(-c2ccc(F)cn2)c1CNc1cc(C(=O)N2CC3(COC3)C2)n(C)n1 [Example 168, (3-((3-(5-Fluoropyridin-2-yl)-5-methylisoxazol-4-yl)methylamino)-1-methyl-1H-pyrazol-5-yl)(2-oxa-6-azaspiro[3.3]heptan-6-yl)methanone]",77.7 nM
